Patent publication US7378403B2, “Akt inhibitors, pharmaceutical compositions, and uses thereof” (The United States of America as represented by the …, priority 2002, dated 2008)

Columns and labels:
Assay type in all cases: cell-based
p38 = assay: Immunoblotting with phospho-specific antibodies: p38 phosphorylation; conditions: H1703 (FIG. 3A) or H157 cells (FIG. 3B)
Procedure: (§1) The SH compounds were tested against Akt and other kinases that are either upstream of Akt (PDK-1), downstream of Akt (c-Raf, 4EBP-1, p70S6K, FKHR, GSK-3, and/or AFX), or downstream of Ras (ERK, p38). Immunoblotting was carried out with phospho-specific antibodies to assess activation state of the kinases, and with native antibodies to assess changes in protein levels. Similar results were obtained with the H1703 (FIG. 3A) or H157 cells (FIG. 3B). […] Upstream of Akt, phosphorylation of PDK-1 was not affected by any SH compound. Of the downstream substrates, c-Raf phosphorylation and 4EBP-1 phosphorylation were decreased most. Decreased c-Raf phosphorylation correlated with increased ERK and p38 phosphorylation, which is consistent with the inhibitory effect of S259 phosphorylation by Akt on c-Raf activity.

[1] = system: H1703, H157, and H1155 cells; assay: Apoptosis in cell lines with high levels of Akt activity; conditions: FIG. 4
Procedure: (§2) Cell lines containing high or low endogenous levels of Akt activity were treated with SH compounds and the cell apoptosis was measured.

Akt = assay: Immunoblotting with antibodies against Akt phosphorylated at S473 and native Akt after administration of compounds to cancer cell lines; conditions: for native Akt levels (immunoblot) / Akt phosphorylation at S473 (immunoblot): FIG. 1D; for decreasing Akt phosphorylation: panel of cancer cell lines (summary)
Procedure: The SH compounds were tested against Akt and other kinases that are either upstream of Akt (PDK-1), downstream of Akt (c-Raf, 4EBP-1, p70S6K, FKHR, GSK-3, and/or AFX), or downstream of Ras (ERK, p38). Immunoblotting was carried out with phospho-specific antibodies to assess activation state of the kinases, and with native antibodies to assess changes in protein levels.

4EBP-1 = assay: Immunoblotting with phospho-specific antibodies: 4EBP-1 phosphorylation; conditions: summary, cell line not specified
Procedure: as §1

tuberin = assay: Phosphorylation of tuberin
Excerpt: SH5, 6, 23, 24, and 25 are very active in decreasing Akt phosphorylation in a panel of cancer cell lines. These compounds decrease Akt phosphorylation as well as Akt kinase activity, with IC50s in the low micromolar range. These compounds appear to be specific for Akt, as the phosphorylation of the upstream kinase, PDK-1, is unaffected by any of the SH compounds, as is […]. Cell-line specific, selective inhibition of phosphorylation of substrates downstream of Akt, such as c-Raf, 4EBP-1, GSK-3, and/or FKHR/AFX was observed. […] Phosphorylation of tuberin, 4EBP-1 and P70S6K (substrates that control protein translation) was inhibited by SH23, 24, and 25; and SH5-6 inhibited phosphorylation of tuberin and 4EBP-1. Phosphorylation of forkhead family members AFX and FKHR that control transcription was inhibited by SH23 or 25. Phosphorylation of GSK-3 and c-Raf was attenuated by SH23-25.

MB468 cells = assay: Apoptosis in MB468 cells; conditions: MB468 cells (data not shown)
Procedure: as §2

H1355 and A549 cells = assay: Apoptosis in cells with low endogenous Akt levels
Procedure: as §2

p70S6K = assay: Immunoblotting with phospho-specific antibodies: p70S6K phosphorylation
Procedure: as §1

AFX = assay: Immunoblotting with phospho-specific antibodies: AFX phosphorylation
Procedure: as §1

FKHR = assay: Immunoblotting with phospho-specific antibodies: FKHR phosphorylation
Procedure: as §1

[2] = H1703 (FIG. 3A) or H157 cells (FIG. 3B)

Row | SMILES | p38 phosphorylation (p38) | increase of apoptosis [1] | native Akt levels (immunoblot) (Akt) | Akt phosphorylation (Akt; [2]) | native Akt levels (Akt; [2]) | Akt phosphorylation at S473 (immunoblot) (Akt; H1703 cells (wild type PTEN)) | Akt phosphorylation (Akt; all three cell lines, FIG. 1F) | decreasing Akt phosphorylation (Akt) | phosphorylation of 4EBP-1 (4EBP-1) | phosphorylation of tuberin (tuberin) | apoptosis (MB468 cells) | apoptosis (H1355 and A549 cells) | Akt phosphorylation at S473 (immunoblot) (Akt; cell line not specified (H1703, H157)) | Akt phosphorylation at S473 (immunoblot) (Akt; H157 cells (mutant PTEN)) | phosphorylation of P70S6K (p70S6K) | phosphorylation of AFX (AFX) | phosphorylation of FKHR (FKHR)
1 | CCCCCCCCCCCCCCCCCCOCC(COP(=O)(O)OC1C(O)CC(O)C(O)C1O)OC (centres unmarked) [DPIEL] | decreased | no effect |  |  |  |  |  |  |  |  |  |  |  |  |  |  | 
2 | CCCCCCCCCCCCCCCCCCOC[C@H](COP(=O)(O)O[C@H]1[C@H](O)[C@@H](O)[C@H](O)C[C@H]1OC)OC [SH5] |  |  | without affecting | inhibited | without affecting | decreased | completely inhibited | very active | inhibited | inhibited | Increased apoptosis | did not undergo apoptosis |  |  |  |  | 
3 | CCCCCCCCCCCCCCCCCCOC[C@H](COP(=O)(O)O[C@@H]1CC[C@@H](O)[C@H](O)[C@H]1O)OC [SH6] |  |  | without affecting | inhibited | without affecting | decreased | completely inhibited | very active | inhibited | inhibited | Increased apoptosis | did not undergo apoptosis |  |  |  |  | 
4 | CCCCCCCCCCCCCCCCCCOC[C@H](CO)OC [SH7, reference compound] |  | no effect |  | did not decrease |  |  |  |  |  |  |  | did not undergo apoptosis | lack of decreased phosphorylation |  |  |  | 
5 | CCCCCCCCCCCCCCCCCCOC[C@H](COP(=O)(O)O[C@@H]1[C@H](O)[C@H](O)C[C@H](O)[C@H]1O)OC [SH10] |  |  |  | inhibited | without affecting |  |  |  |  |  |  |  |  |  |  |  | 
6 | CCCCCCCCCCCCCCCCCCOC[C@H](COP(=O)(O)O[C@H]1[C@H](O)C[C@H](O)C[C@H]1O)OC [SH16] |  |  | without affecting |  |  | decreased |  |  |  |  |  |  |  | All but SH16 |  |  | 
7 | CCCCCCCCCCCCCCCCCCOCC(COP(=O)(O)OC1C(OCC(C)C)CC(O)C(O)C1O)OC (centres unmarked) [SH23] |  |  | without affecting |  |  | decreased | completely inhibited | very active | inhibited | inhibited |  |  |  |  | inhibited | inhibited | inhibited
8 | CCCCCCCCCCCCCCCCCCOCC(COP(=O)(O)OC1C(OCC2CCCCC2)CC(O)C(O)C1O)OC (centres unmarked) [SH24] |  |  | without affecting |  |  | decreased | completely inhibited | very active | inhibited | inhibited |  |  |  |  | inhibited |  | 
9 | CCCCCCCCCCCCCCCCCCOCC(COP(=O)(O)OC1C(O)CCC(O)C1O)OC (centres unmarked) [SH25] |  |  | without affecting |  |  | decreased | completely inhibited | very active | inhibited | inhibited |  |  |  |  | inhibited | inhibited | inhibited
